Measured values as given in PubChem BioAssay (NCI).
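Assay format: 96-well plates, 48-hour exposure. TGI denotes the concentration required for complete inhibition of growth.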

Legend:
Experiment in all cases: inhibition of tumour cell growth, NCI panel, 48 h
SK-MEL-5 melanoma = test system: SK-MEL-5 melanoma
OVCAR-3 ovarian = test system: OVCAR-3 ovarian
T-47D breast = test system: T-47D breast
UACC-257 melanoma = test system: UACC-257 melanoma
U251 CNS = test system: U251 CNS
A549 NSCLC = test system: A549 NSCLC
SK-MEL-28 melanoma = test system: SK-MEL-28 melanoma
UACC-62 melanoma = test system: UACC-62 melanoma
OVCAR-4 ovarian = test system: OVCAR-4 ovarian
SK-MEL-2 melanoma = test system: SK-MEL-2 melanoma
EKVX NSCLC = test system: EKVX NSCLC
SF-539 CNS = test system: SF-539 CNS
SNB-75 CNS = test system: SNB-75 CNS
RPMI-8226 leukemia = test system: RPMI-8226 leukemia
TK-10 renal = test system: TK-10 renal
SK-OV-3 ovarian = test system: SK-OV-3 ovarian
SF-268 CNS = test system: SF-268 CNS
K-562 leukemia = test system: K-562 leukemia
HCT-15 colon = test system: HCT-15 colon
MOLT-4 leukemia = test system: MOLT-4 leukemia
NCI-H226 lung = test system: NCI-H226 lung
M14 melanoma = test system: M14 melanoma
UO-31 renal = test system: UO-31 renal
MALME-3M melanoma = test system: MALME-3M melanoma
HT29 colon = test system: HT29 colon
MDA-MB-231 breast = test system: MDA-MB-231 breast
KM12 colon = test system: KM12 colon
SF-295 CNS = test system: SF-295 CNS
PC-3 prostate = test system: PC-3 prostate
A498 renal = test system: A498 renal
SW-620 colon = test system: SW-620 colon
HCC-2998 colon = test system: HCC-2998 colon
HOP-62 NSCLC = test system: HOP-62 NSCLC
HCT-116 colon = test system: HCT-116 colon
OVCAR-5 ovarian = test system: OVCAR-5 ovarian
ACHN renal = test system: ACHN renal
MDA-MB-435 = test system: MDA-MB-435
NCI-H460 lung = test system: NCI-H460 lung
786-0 renal = test system: 786-0 renal
IGROV1 ovarian = test system: IGROV1 ovarian
SR leukemia = test system: SR leukemia
LOX IMVI melanoma = test system: LOX IMVI melanoma
COLO 205 colon = test system: COLO 205 colon
CAKI-1 renal = test system: CAKI-1 renal
OVCAR-8 ovarian = test system: OVCAR-8 ovarian
BT-549 breast = test system: BT-549 breast
NCI-H23 lung = test system: NCI-H23 lung
SNB-19 CNS = test system: SNB-19 CNS
MCF7 breast = test system: MCF7 breast
DU-145 prostate = test system: DU-145 prostate
NCI/ADR-RES ovarian = test system: NCI/ADR-RES ovarian

COC(=O)CP1(=O)OC2C(C3CCC2(C)C3(C)C)N1c1cc(C(F)(F)F)cc(C(F)(F)F)c1 (stereo unspecified)
TGI (SK-MEL-5 melanoma): > 100 µM
TGI (OVCAR-3 ovarian): 34.4 µM
TGI (T-47D breast): 71 µM
TGI (UACC-257 melanoma): > 100 µM
TGI (U251 CNS): > 100 µM
TGI (A549 NSCLC): > 100 µM
TGI (SK-MEL-28 melanoma): > 100 µM
TGI (UACC-62 melanoma): > 100 µM
TGI (OVCAR-4 ovarian): > 100 µM
TGI (SK-MEL-2 melanoma): 46.4 µM
TGI (EKVX NSCLC): > 100 µM
TGI (SF-539 CNS): 45.8 µM
TGI (SNB-75 CNS): 51.9 µM
TGI (RPMI-8226 leukemia): 42.5 µM
TGI (TK-10 renal): 75.2 µM
TGI (SK-OV-3 ovarian): 80.5 µM
TGI (SF-268 CNS): 82.1 µM
TGI (K-562 leukemia): 68.3 µM
TGI (HCT-15 colon): 97.5 µM
TGI (MOLT-4 leukemia): 59 µM
TGI (NCI-H226 lung): 71.7 µM
TGI (M14 melanoma): > 100 µM
TGI (UO-31 renal): > 100 µM
TGI (MALME-3M melanoma): 58.1 µM
TGI (HT29 colon): > 100 µM
TGI (MDA-MB-231 breast): 43.7 µM
TGI (KM12 colon): 54.7 µM
TGI (SF-295 CNS): 48.2 µM
TGI (PC-3 prostate): 74.9 µM
TGI (A498 renal): > 100 µM
TGI (SW-620 colon): 88.3 µM
TGI (HCC-2998 colon): 55.2 µM
TGI (HOP-62 NSCLC): 85.7 µM
TGI (HCT-116 colon): 40.7 µM
TGI (OVCAR-5 ovarian): > 100 µM
TGI (ACHN renal): > 100 µM
TGI (MDA-MB-435): 60.6 µM
TGI (NCI-H460 lung): 86.2 µM
TGI (786-0 renal): 41.7 µM
TGI (IGROV1 ovarian): > 100 µM
TGI (SR leukemia): 62.6 µM
TGI (LOX IMVI melanoma): 49 µM
TGI (COLO 205 colon): 49.1 µM
TGI (CAKI-1 renal): 83.1 µM
TGI (OVCAR-8 ovarian): > 100 µM
TGI (BT-549 breast): 71.8 µM
TGI (NCI-H23 lung): 86.3 µM
TGI (SNB-19 CNS): > 100 µM
TGI (MCF7 breast): > 100 µM
TGI (DU-145 prostate): > 100 µM
TGI (NCI/ADR-RES ovarian): 55.9 µM
